# Laboratory results: patent publication US6987017B2, “Methods for producing L-isoleucine” (Massachusetts Institute of Technology, priority 1999, dated 2006)
# How the values were obtained:
# [1] = system: C. glutamicum ATCC 21799 pAPE7 tdcB; type: cell-based, Corynebacterium glutamicum; details: defined medium with supplement (casamino acids 2 g·l^−1, amino acids 0.5 g·l^−1 each), 150 mg/l IPTG, flasks
# Protocol: Defined medium for Corynebacterium glutamicum contained the following ingredients (per liter): glucose, 35 g; NaCl, 2 g; citrate (trisodium salt, dihydrate), 3 g; CaCl2.2H2O, 0.1 g; MgSO4.7H2O, 0.5 g; Na2EDTA.2H2O, 75 mg; FeSO4.7H2O, 50 mg; 100× salt solution, 20 ml; K2HPO4, 4 g; KH2PO4, 2 g; (NH4)2SO4, 7.5 g; urea, 3.75 g; leucine 0.85 g; thiamine, 0.45 mg; biotin, 0.45 mg; pantothenic acid, 4.5 mg (pH 7.0). The salt solution contained the following ingredients (per liter): MnSO4, 200 mg; Na2B4O7.10H2O, 20 mg; (NH4)6Mo7O24.4H2O, 10 mg; FeCl3.6H2O, 200 mg; ZnSO4.7H2O, 50 mg; CuCl2.2H2O, 20 mg (pH 2.0). When appropriate, kanamycin (150 mg/liter) and isopropyl-β-D-thiogalactopyranoside (IPTG) (150 mg/l) was used.
# For the growth study with amino acid supplements, the defined medium was complemented with Bacto® casamino acids (Difco, Detroit, Mich.) at a concentration of 2 g·l^−1 or with amino acid (alanine, glycine, methionine or valine) at a concentration of 0.5 g·l^−1 each.
# Valine and methionine were chosen to test due to their direct connection with the isoleucine pathway, and alanine and glycine for their indirect connection through the use of pyruvate, which is also a substrate for the isoleucine pathway.
# [2] = system: C. glutamicum ATCC 21799 harboring pAPE7; assay: IPTG induction of catabolic threonine dehydratase in batch fermentation of ATCC 21799 (pAPE7); type: cell-based, Corynebacterium glutamicum; details: IPTG 150 mg/l
# Protocol: (§1) For determination of threonine dehydratase activity, the assay mixture contained 40 mM threonine, 1 mM pyridoxal phosphate, crude extract and 100 mM potassium phosphate buffer, pH 8.0 in a final volume of 1 ml. The reaction was started with the addition of threonine and terminated by the addition of 1 ml solution containing 1% semicarbazide and 0.9% sodium acetate. After a 15 min incubation at room temperature, the amount of alpha-ketobutyrate formed at various intervals was measured spectrophotometrically as its semicarbazone derivative at 254 nm (=0.52 mmol·cm^−1). Relevant standards and controls were carried out in the same manner. For specific determination of catabolic threonine dehydratase activity, the assay mixture contained 20 mM isoleucine in order to inhibit the anabolic threonine dehydratase.
# (§2) In FIGS. 3-6, the results of the enzymatic assays are expressed in terms of relative expression of threonine dehydratase compared to wild type expression as the ratio between the specific activity of the enzyme of a strain and the specific activity of the wild type. Each assay was replicated five times, and the results were reproducible within 15%.
# (§3) Starter cultures of Corynebacterium glutamicum were prepared by transferring one colony from LB agar plates to 5 ml of LB medium. These cultures were incubated for two days at 30° C. and 200 rpm. […]
# [3] = system: C. glutamicum ATCC 21799; assay: IPTG addition in batch fermentation of wild type ATCC 21799; type: cell-based, Corynebacterium glutamicum; details: wild type culture, IPTG 150 mg/l
# Protocol: as §1
# In FIGS. 3-6, the results of the enzymatic assays are expressed in terms of relative expression of threonine dehydratase compared to wild type expression as the ratio between the specific activity of the enzyme of a strain and the specific activity of the wild type. […]
# C. glutamicum ATCC 21799 was grown twice in defined medium in a 4-liter reactor. […] A concentration of isoleucine of 50 mg·l^−1 was detected at the end of both cultures. Oxygenation of the cultures being sufficient, neither lactate nor acetate was detected during the fermentation.
# [4] = system: C. glutamicum ATCC 21799 harboring pAPE13; assay: IPTG induction of threonine dehydratase in batch fermentation of ATCC 21799 (pAPE13); type: cell-based, Corynebacterium glutamicum; details: IPTG 150 mg/l added at 1.5 g cell dry weight·l^−1
# Protocol: as §1, §2, §3
# [5] = target: T1, Anabolic threonine dehydratase (Corynebacterium glutamicum, UniProt Q04513); assay: Isoleucine sensitivity of anabolic (native) threonine dehydratase in crude extracts of C. glutamicum ATCC21799; type: biochemical; details: ATCC 21799 crude extract
# T1 construct: endogenous in cells; host or cells: Corynebacterium glutamicum ATCC 21799; cell-free crude extract
# Protocol: (§4) Enzyme assays were performed with cell free crude extracts, prepared by the following method. Cells were harvested by centrifugation for 10 min at 5000×g at 4° C. and washed with 10 ml of the enzyme assay buffer (100 mM Tris-HCl, pH 7.5, containing 20 mM KCl, 5 mM MnSO4, 0.1 mM EDTA, and 2 mM dithiothreitol) (Jetten, M. S. M., et al., Appl. Microbiol. Biotechnol. 41:47-52 (1994)). The cell pellet was resuspended in the same buffer containing a protease inhibitor cocktail (Boehringer Mannheim, Germany) so that the final concentration was 20 g dry cell weight·l^−1. Resuspended cells were disrupted with a glass bead mixer (5100 Mixer-Mill, SPEX, Metuchen, N.J.). […] Protein concentrations were determined by the method of Bradford (Bradford, M. M., Anal. Biochem. 72:248-254 (1976)) with the Bio-Rad (Hercules, Calif.) protein assay kit using bovine serum albumin as a standard.
# (§5) For determination of threonine dehydratase activity, the assay mixture contained 40 mM threonine, 1 mM pyridoxal phosphate, crude extract and 100 mM potassium phosphate buffer, pH 8.0 in a final volume of 1 ml. […] After a 15 min incubation at room temperature, the amount of alpha-ketobutyrate formed at various intervals was measured spectrophotometrically as its semicarbazone derivative at 254 nm (=0.52 mmol·cm^−1). […]
# [6] = target: T2, catabolic threonine dehydratase (Escherichia coli, UniProt P0AGF6); assay: Isoleucine sensitivity of catabolic threonine dehydratase (tdcB) in crude extracts of C. glutamicum ATCC 21799 (pAPE7); type: biochemical, E. coli
# T2 construct: tdcB and ilvA coding regions were amplified by the Polymerase Chain Reaction (PCR); expressed in transfected cells; host or cells: Corynebacterium glutamicum ATCC 21799 carrying pAPE7 (trc:tdcB); cell-free crude extract
# Protocol: Enzyme assays were performed with cell free crude extracts, prepared by the following method. Cells were harvested by centrifugation for 10 min at 5000×g at 4° C. and washed with 10 ml of the enzyme assay buffer (100 mM Tris-HCl, pH 7.5, containing 20 mM KCl, 5 mM MnSO4, 0.1 mM EDTA, and 2 mM dithiothreitol) (Jetten, M. S. M., et al., Appl. Microbiol. Biotechnol. 41:47-52 (1994)). The cell pellet was resuspended in the same buffer containing a protease inhibitor cocktail (Boehringer Mannheim, Germany) so that the final concentration was 20 g dry cell weight·l^−1. Resuspended cells were disrupted with a glass bead mixer (5100 Mixer-Mill, SPEX, Metuchen, N.J.). 2.5 ml of bacterial suspension was poured in a frozen steel vial containing 5 g of cold 106 μm-diameter glass beads (Sigma) and one stainless steel ball bearing. The vials containing bacterial suspension and glass beads were vigorously shaken at 4° C. using the mixer by 10 cycles of 30 sec shaking separated by rest cycles of one minute. Cell debris were removed by centrifugation for 20 min at 47000×g at 4° C. The supernatant (crude extract) was then tested for enzyme activity. Protein concentrations were determined by the method of Bradford (Bradford, M. M., Anal. Biochem. 72:248-254 (1976)) with the Bio-Rad (Hercules, Calif.) protein assay kit using bovine serum albumin as a standard.
# as §5
# In order to confirm the insensitivity to isoleucine of catabolic dehydratase expressed in a lysine producing strain of C. glutamicum, threonine dehydratase activities were measured in crude extracts of strains ATCC21799 and ATCC21799 carrying pAPE7 at different concentrations of isoleucine (FIG. 3). […]
# [7] = target: T3, endogenous threonine dehydratase (encoded by ilvA) (Corynebacterium glutamicum, UniProt Q04513); details: C. glutamicum MH20-22B; Morbach et al. 1995; cited from earlier work
# T3 construct: host or cells: Corynebacterium glutamicum MH20-22B
# T3 sequence (Q04513 1-436): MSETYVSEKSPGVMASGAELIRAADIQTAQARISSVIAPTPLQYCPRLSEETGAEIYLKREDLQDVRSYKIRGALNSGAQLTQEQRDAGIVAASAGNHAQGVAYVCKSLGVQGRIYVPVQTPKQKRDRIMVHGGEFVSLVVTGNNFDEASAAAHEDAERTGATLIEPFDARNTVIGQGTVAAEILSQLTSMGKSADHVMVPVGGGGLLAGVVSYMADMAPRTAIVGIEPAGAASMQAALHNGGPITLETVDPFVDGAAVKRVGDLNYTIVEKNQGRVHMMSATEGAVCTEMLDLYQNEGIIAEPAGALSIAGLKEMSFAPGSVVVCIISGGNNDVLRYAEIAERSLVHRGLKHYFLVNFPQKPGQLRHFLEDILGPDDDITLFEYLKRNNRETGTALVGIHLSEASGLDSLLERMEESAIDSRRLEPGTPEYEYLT
# [8] = target: mutated threonine dehydratase V323A (Corynebacterium glutamicum, UniProt Q04513, V323A); details: 50 mM isoleucine; Morbach et al. 1995; cited from earlier work
# [9] = target: T4, tdcB gene product (Escherichia coli, UniProt P0AGF6); assay: Threonine dehydratase activity of E. coli AB1255 (pAPE5) crude extracts in the presence of isoleucine; type: biochemical; details: isoleucine up to 47 mM; consistent activity
# T4 construct: tdcB and ilvA coding regions were amplified by the Polymerase Chain Reaction (PCR); expressed in transfected cells; host or cells: E. coli AB1255 carrying pAPE5 (pTrc99a-based, trc:tdcB); cell-free crude extract
# Protocol: as §4, §5
# [10] = system: AHAS; details: Eggeling et al. 1987; cited from earlier work
# T2 sequence (P0AGF6 whole entry): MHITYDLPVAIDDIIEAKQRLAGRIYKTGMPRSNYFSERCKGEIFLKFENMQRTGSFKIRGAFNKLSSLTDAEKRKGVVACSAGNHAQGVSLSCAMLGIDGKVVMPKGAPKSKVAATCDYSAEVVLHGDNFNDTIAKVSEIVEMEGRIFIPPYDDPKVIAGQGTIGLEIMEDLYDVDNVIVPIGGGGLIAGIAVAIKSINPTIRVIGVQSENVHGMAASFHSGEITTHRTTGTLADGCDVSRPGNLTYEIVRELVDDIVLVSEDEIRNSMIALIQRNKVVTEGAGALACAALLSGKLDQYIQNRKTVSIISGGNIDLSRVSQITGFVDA
# Chain of mutated threonine dehydratase V323A (Q04513 whole entry V323A): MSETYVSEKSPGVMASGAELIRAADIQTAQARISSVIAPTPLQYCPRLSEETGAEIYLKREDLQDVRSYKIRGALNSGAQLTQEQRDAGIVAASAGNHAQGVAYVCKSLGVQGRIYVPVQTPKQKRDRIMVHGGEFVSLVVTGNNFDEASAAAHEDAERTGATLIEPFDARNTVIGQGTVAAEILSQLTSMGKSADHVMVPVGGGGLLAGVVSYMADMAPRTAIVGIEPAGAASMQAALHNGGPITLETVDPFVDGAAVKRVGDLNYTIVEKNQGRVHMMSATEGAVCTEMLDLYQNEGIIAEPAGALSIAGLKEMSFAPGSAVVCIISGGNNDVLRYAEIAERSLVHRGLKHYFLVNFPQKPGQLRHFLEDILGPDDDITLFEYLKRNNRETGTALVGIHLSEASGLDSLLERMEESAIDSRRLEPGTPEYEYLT
# T4 sequence (P0AGF6 whole entry): as the sequence (P0AGF6 whole entry) above
smiles,measurement,setting,value
"C[C@H](N)C(=O)O [Alanine, alanine]",Specific growth rate,[1],0.17 h⁻¹
"CSCC[C@H](N)C(=O)O [Methionine, methionine]",Specific growth rate,[1],0.26 h⁻¹
"CC(C)S[C@@H]1O[C@H](CO)[C@H](O)[C@H](O)[C@H]1O [IPTG, isopropyl-β-D-thiogalactopyranoside]",catabolic threonine dehydratase concentration relative to original enzyme after addition of IPTG,[2],15 fold
same,effect of IPTG addition on threonine dehydratase,[3],did not lead to an increase
same,increase in the level of threonine dehydratase after addition of IPTG,[4],20 fold
CC[C@H](C)[C@H](N)C(=O)O [isoleucine],isoleucine concentration that totally inhibits the native (anabolic) threonine dehydratase,[5],15 mM
same,remaining activity at 50000 µM,"[6]; 50 mM isoleucine, read-out: remaining activity of catabolic threonine dehydratase of E. coli",70 to 80%
same,inhibition at 200000 µM,[6]; 200 mM isoleucine,40%
same,retained original activity of catabolic threonine dehydratase,[6]; 200 mM isoleucine,60%
same,isoleucine concentration giving complete inhibition of the endogenous threonine dehydratase,[7],5 mM
same,remaining activity of mutated threonine dehydratase V323A,[8],22%
same,threonine dehydratase activity of AB1255 (pAPE5) extracts in the presence of isoleucine,[9],about 80 μmol product·min^−1·mg protein^−1
CCC(=O)C(=O)O [alpha-ketobutyrate],affinity of AHAS for alpha-ketobutyrate relative to pyruvate,[10],3 fold
"NCC(=O)O [Glycine, glycine]",Specific growth rate,[1],0.17 h⁻¹
"CC(C)[C@H](N)C(=O)O [Valine, valine]",Specific growth rate,[1],0.24 h⁻¹
